Assay results from publication PMC7481357, “N-terminal Myristoylation Enhanced the Antimicrobial Activity of Antimicrobial Peptide PMAP-36PW” (Frontiers in Cellular and Infection Microbiology, 2020).
“Also recorded” adds a separate entry of the source. Residues, ends and D or L forms follow the SMILES beside them. *: point of attachment. Myristoyl = CCCCCCCCCCCCCC(=O)*

How the values were obtained:
S. aureus ATCC 25923 = assay type: cell-based, Staphylococcus aureus; details: ATCC 25923, 1 h
Description: The effects of abiotic factors on the antibacterial activity of Myr-36PW were investigated by MIC assay (Xi et al., [2013]; Zhong et al., [2019]). S. aureus ATCC 25923 and P. aeruginosa GIM 1.551 overnight cultures were diluted to 1 × 10^6 CFU/mL, and the MICs of peptides in MHB with different concentration of physiological salts (150 mM NaCL, 2 mM CaCL2) were determined. And after the peptides incubated in 10% mice serum for 1 h at 37°C, MICs of peptides against S. aureus ATCC 25923 and P. aeruginosa GIM 1.551 were determined. The MICs in MHB in the absence of physiological salts and serum were used as the control group.
Salt and serum stability in vitro were indicated by MIC assay. The concentrations of NaCl and CaCl2 were physiological concentration. 10% mice serum was inactivated by heat treatment for 15 min at 60 ℃。The control group was measured in the absence of physiological salts or serum in MHB.

[1] = Self-assembly of the peptide; assay type: physicochemical; details: stated in discussion, method not given
[2] = test system: S. aureus ATCC 25923, S. typhimurium SL 1344, and P. aeruginosa GIM 1.551; experiment: Biofilm eradication assay (crystal violet and colony count); assay type: cell-based; details: 128 μg/mL, n = 5
Description: The biofilm-eradicating ability of Myr-36PW was determined against S. aureus ATCC 25923, S. typhimurium SL 1344, and P. aeruginosa GIM 1.551 (Chen et al., [2018]; de Breij et al., [2018]). In brief, 200 μL of bacterial dilution (1 × 10^6 CFU/mL) was added into a 96-well plate and incubated for 24 h at 37°C to form a biofilm, which was washed three times with PBS. Subsequently, 200 μL of peptides at 128 μg/mL were added to the wells. After incubation for 1 h at 37°C, the OD of each well was measured at 620 nm by crystal violet staining. The wells were gently washed three times with PBS after 1 h incubation to evaluate the killing effect of Myr-36PW against bacteria in the biofilm. Afterward, 100 μL of suspension was serially diluted and spread on LB agar plates, and bacterial colony was measured.
Figure 6 Biofilm inhibition and eradication of Myr-36PW. (A–C) Inhibition of biofilm formation by Myr-36PW. (D) Eradication of preformed biofilm by Myr-36PW. (E) Killing effect of Myr-36PW against biofilm bacteria. Inhibition rate % = [1 – OD620 nm(peptides)/OD620 nm(bacteria)] × 100%. Biofilm mass % = OD620 nm(peptides)/OD620 nm(control) × 100%. The control group was bacterial culture without peptides. Data represent the mean ± SD (n = 5).

P. aeruginosa GIM 1.551 [3] = experiment: Wound infection model; assay type: in vivo, BALB/c mice; details: 20 μL, 1 μg/μL, once a day for 7 days
Description: Sixty mice with ten mice in each group were used in the experiment. Infection and treatment were performed as previously described (Hong et al., [2017]). The mouse dorsal region with a diameter of 3.0 cm was treated with hair pusher, and a full-thickness 2.0 cm diameter wound was created by excising the skin and infected by direct seeding with P. aeruginosa GIM 1.551 (1 × 10^8 CFU/mL, 50 μL). The wound was then covered with sterile gauze to prevent cross contamination. Treatment was initiated at 24 h after bacterial inoculation. The mice with no infection and treatment was used as a blank control, those provided with PBS (20 μL) as the negative control group, those administered with ampicillin sodium (20 μL, 1 μg/μL) as the positive control group, and the remaining were those treated with the three peptides (20 μL, 1 μg/μL) once a day for 7 days as the treatment groups. The mice were sacrificed after the 7 day treatment. Changes in the wound were observed, and the infected sections of skin were aseptically contained, homogenized, and serially diluted. Bacterial CFU counts were obtained.
Figure 11 Treatment value of wound by Myr-36PW in vivo. A 2 cm wound was cut with a knife and directly injected with P. aeruginosa GIM 1.551. (A) Wound changes of mice after 7 days treatment. (B) Bacterial CFU in the wound area treated for 7 days under different experimental conditions. AS is ampicillin sodium. Data represent the mean Log (CFU) ± SD of five individual experiments. *P < 0.05 and **P < 0.01, compared with PBS. ^#P < 0.05, compared with PMAP-36PW.

P. aeruginosa GIM 1.551 [4] = experiment: Subcutaneous abscess model; assay type: in vivo, BALB/c mice; details: injected 20 μL, 1 μg/μL, once a day for 3 days
Description: A subcutaneous abscess model in vivo was established as previously reported (Zhao et al., [2019]). The mouse dorsal region with 3.0 cm diameter was treated with hair pusher. A total of 120 mice were randomly divided into two experimental models, one was challenged with S. aureus ATCC 25923 (2.5 × 10^8 CFU/mL, 60 μL), and the other was challenged with P. aeruginosa GIM 1.551 (3.0 × 10^8 CFU/mL, 60 μL). In the S. aureus ATCC 25923 model, 60 mice were divided into six groups of 10 members. The mice with no infection and treatment was used as a blank control, those directly injected with PBS (20 μL) as the negative control group, those injected with benzylpenicillin potassium (20 μL, 1 μg/μL) as the positive control group, and the remaining three groups as the treatment groups injected with Myr-36PW (20 μL, 1 μg/μL), PMAP-36PW (20 μL, 1 μg/μL), and PMAP-36 (20 μL, 1 μg/μL). The procedure in P. aeruginosa GIM 1.551 model is the same as that in S. aureus ATCC 25923 model, except for the use of ampicillin sodium as a positive control. Treatment once a day for 3 days was initiated when the mice developed prominent pustules on their backs. A day after the treatment, the size of the abscess was observed, and its tissues were excised, homogenized, and serially diluted. Bacteria CFU counts were calculated.
Figure 10 Treatment efficacy of subcutaneous abscess by Myr-36PW in vivo. Mice were injected with S. aureus ATCC 25923 or P. aeruginosa GIM 1.551 to develop a subcutaneous abscess before treatment. (A) Changes in the abscess area of mice after 3 days treatment. (B,C) Quantitative analysis of bacterial CFU in abscess area that received 3 days treatment under various experimental conditions. The number of CFU in each treatment group was normalized by using the CFU of the experimental group divided by the CFU of the PBS group (100%). BP is benzylpenicillin potassium, AS is ampicillin sodium. Data represent the mean ± SD of five individual experiments. *P < 0.05 and **P < 0.01, compared with PBS. ^#P < 0.05 and ^##P < 0.01, compared with PMAP-36PW.

Compound: CCCCCCCCCCCCCC(=O)NCC(=O)NCC(=O)N[C@@H](CCCNC(=N)N)C(=O)N[C@@H](Cc1ccccc1)C(=O)N[C@@H](CCCNC(=N)N)C(=O)N[C@@H](CCCNC(=N)N)C(=O)N[C@@H](CC(C)C)C(=O)N[C@@H](CCCNC(=N)N)C(=O)N[C@@H](CCCCN)C(=O)N[C@@H](CCCCN)C(=O)N[C@H](C(=O)N[C@@H](CCCNC(=N)N)C(=O)N[C@@H](CCCCN)C(=O)N[C@@H](CCCNC(=N)N)C(=O)N[C@@H](CC(C)C)C(=O)N[C@@H](CCCCN)C(=O)N[C@@H](CCCCN)C(=O)N[C@H](C(=O)NCC(=O)N[C@@H](CCCCN)C(=O)N[C@H](C(=O)N[C@@H](CC(C)C)C(=O)N[C@@H](CCCCN)C(=O)N[C@@H](Cc1c[nH]c2ccccc12)C(=O)N[C@H](C(=O)N[C@@H](Cc1c[nH]c2ccccc12)C(=O)N[C@@H](Cc1c[nH]c2ccccc12)C(=O)N[C@H](C(=O)N[C@H](C(=O)NCC(=O)N[C@@H](CO)C(=O)N[C@H](C(=O)N1CCC[C@H]1C(=O)N[C@@H](CC(C)C)C(=O)NCC(=O)N[C@@H](CS)C(=O)NCC(=O)O)[C@@H](C)CC)C(C)C)[C@@H](C)CC)[C@@H](C)CC)C(C)C)[C@@H](C)CC)[C@@H](C)O [Myr-36PW] (Myristoyl-GGRFRRLRKKTRKRLKKIGKVLKWIWWIVGSIPLGCG-OH; C-terminus assumed)
- MICs, Control (S. aureus ATCC 25923): 0.0156 µg/mL
- MICs, Serum (S. aureus ATCC 25923): 0.0313 µg/mL
- Self-assembly [1]: not self-assembly
- Eradication of preformed biofilm ([2]; 1 h at 37°C on 24 h biofilm, crystal violet OD 620 nm): only eradicated the preformed biofilm in Gram-negative bacteria
- Killing effect against biofilm bacteria ([2]; 1 h at 37°C, colony count): bacterial killing effect except against S. aureus ATCC 25923
- Wound size (P. aeruginosa GIM 1.551 [3]): significantly reduced
- Bacterial CFU in the wound area (P. aeruginosa GIM 1.551 [3]; vs PBS group: PMAP-36PW P < 0.05, Myr-36PW and ampicillin sodium P < 0.01, n = 5): significantly reduced
- Abscess area (P. aeruginosa GIM 1.551 [4]): significantly reduced the abscess area and effectively suppressed its growth
- Bacterial CFU in abscess area (P. aeruginosa GIM 1.551 [4]; vs PMAP-36PW: Myr-36PW P < 0.05, ampicillin sodium P < 0.01, n = 5): significant difference compared with that of PBS group (P < 0.01); also recorded: lower than that of PMAP-36PW group
